Test results taken from patent publication US9636418B2 (priority 2013, dated 2017).
Where “and” joins values, the source holds several entries; their conditions need not be identical. Equal entries are not always repeated.

What was measured:
Test in all cases: cell-based
hNav1.4 = hNav1.4 (Homo sapiens, UniProt P35499); details: IonWorks Quattro; read-out: IC50 Nav1.4
hNav1.5 = hNav1.5 (Homo sapiens, UniProt Q14524); details: IonWorks Quattro; read-out: IC50 Nav1.5
hNav1.7 = hNav1.7 (Homo sapiens, UniProt Q15858); details: IonWorks Quattro; read-out: IC50 Nav1.7
hNav1.3 = hNav1.3 (Homo sapiens, UniProt Q9NY46); details: IonWorks Quattro; read-out: IC50 Nav1.3
Chain of hNav1.3 (Q9NY46 whole entry): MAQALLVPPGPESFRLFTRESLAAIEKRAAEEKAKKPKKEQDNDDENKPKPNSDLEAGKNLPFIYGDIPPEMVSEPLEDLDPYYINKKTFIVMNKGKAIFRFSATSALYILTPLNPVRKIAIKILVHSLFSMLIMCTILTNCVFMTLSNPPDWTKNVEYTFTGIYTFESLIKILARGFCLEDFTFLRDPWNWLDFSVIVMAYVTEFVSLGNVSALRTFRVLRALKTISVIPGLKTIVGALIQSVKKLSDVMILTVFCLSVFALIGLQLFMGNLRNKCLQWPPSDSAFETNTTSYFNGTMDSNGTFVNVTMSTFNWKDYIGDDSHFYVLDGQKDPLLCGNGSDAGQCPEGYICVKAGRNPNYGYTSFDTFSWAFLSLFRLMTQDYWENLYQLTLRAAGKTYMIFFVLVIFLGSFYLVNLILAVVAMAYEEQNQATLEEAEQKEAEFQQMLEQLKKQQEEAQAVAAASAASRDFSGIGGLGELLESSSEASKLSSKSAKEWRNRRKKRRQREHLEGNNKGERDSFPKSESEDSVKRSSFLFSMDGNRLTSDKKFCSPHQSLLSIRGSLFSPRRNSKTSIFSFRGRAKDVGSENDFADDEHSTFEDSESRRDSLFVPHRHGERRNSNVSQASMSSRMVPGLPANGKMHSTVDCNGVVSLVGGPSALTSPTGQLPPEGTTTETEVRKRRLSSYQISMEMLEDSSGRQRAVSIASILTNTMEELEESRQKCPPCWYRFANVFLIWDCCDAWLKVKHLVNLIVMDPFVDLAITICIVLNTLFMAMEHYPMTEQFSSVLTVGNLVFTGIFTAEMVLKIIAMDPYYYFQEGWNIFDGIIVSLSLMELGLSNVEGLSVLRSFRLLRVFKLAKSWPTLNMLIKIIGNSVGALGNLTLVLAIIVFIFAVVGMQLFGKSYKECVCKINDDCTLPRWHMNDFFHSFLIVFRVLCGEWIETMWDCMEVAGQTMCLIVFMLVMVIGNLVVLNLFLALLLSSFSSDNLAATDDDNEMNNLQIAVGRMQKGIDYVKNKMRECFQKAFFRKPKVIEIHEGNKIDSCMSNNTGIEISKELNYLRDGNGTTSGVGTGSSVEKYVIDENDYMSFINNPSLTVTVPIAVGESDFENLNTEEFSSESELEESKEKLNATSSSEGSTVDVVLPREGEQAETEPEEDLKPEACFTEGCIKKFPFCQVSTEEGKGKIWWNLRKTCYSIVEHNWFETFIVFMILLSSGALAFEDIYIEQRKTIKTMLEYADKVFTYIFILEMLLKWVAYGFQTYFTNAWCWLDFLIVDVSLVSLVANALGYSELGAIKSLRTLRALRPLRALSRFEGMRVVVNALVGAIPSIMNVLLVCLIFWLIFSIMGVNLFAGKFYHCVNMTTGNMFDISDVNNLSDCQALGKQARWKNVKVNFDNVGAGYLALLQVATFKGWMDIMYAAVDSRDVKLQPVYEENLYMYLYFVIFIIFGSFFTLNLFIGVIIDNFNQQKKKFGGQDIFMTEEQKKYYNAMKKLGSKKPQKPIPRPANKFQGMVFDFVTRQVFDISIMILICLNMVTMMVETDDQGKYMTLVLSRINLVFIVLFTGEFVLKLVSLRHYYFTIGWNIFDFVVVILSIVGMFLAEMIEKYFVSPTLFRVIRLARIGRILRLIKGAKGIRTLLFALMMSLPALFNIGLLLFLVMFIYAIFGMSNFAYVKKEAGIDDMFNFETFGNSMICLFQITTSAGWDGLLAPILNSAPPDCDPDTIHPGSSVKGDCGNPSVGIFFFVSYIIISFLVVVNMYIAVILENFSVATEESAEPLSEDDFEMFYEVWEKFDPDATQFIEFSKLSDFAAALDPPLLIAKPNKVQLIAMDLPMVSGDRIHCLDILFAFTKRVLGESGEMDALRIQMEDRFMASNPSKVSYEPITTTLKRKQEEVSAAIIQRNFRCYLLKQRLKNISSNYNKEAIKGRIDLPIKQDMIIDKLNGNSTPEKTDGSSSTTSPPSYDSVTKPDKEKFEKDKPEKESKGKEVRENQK

Chain of hNav1.4 (P35499 whole entry): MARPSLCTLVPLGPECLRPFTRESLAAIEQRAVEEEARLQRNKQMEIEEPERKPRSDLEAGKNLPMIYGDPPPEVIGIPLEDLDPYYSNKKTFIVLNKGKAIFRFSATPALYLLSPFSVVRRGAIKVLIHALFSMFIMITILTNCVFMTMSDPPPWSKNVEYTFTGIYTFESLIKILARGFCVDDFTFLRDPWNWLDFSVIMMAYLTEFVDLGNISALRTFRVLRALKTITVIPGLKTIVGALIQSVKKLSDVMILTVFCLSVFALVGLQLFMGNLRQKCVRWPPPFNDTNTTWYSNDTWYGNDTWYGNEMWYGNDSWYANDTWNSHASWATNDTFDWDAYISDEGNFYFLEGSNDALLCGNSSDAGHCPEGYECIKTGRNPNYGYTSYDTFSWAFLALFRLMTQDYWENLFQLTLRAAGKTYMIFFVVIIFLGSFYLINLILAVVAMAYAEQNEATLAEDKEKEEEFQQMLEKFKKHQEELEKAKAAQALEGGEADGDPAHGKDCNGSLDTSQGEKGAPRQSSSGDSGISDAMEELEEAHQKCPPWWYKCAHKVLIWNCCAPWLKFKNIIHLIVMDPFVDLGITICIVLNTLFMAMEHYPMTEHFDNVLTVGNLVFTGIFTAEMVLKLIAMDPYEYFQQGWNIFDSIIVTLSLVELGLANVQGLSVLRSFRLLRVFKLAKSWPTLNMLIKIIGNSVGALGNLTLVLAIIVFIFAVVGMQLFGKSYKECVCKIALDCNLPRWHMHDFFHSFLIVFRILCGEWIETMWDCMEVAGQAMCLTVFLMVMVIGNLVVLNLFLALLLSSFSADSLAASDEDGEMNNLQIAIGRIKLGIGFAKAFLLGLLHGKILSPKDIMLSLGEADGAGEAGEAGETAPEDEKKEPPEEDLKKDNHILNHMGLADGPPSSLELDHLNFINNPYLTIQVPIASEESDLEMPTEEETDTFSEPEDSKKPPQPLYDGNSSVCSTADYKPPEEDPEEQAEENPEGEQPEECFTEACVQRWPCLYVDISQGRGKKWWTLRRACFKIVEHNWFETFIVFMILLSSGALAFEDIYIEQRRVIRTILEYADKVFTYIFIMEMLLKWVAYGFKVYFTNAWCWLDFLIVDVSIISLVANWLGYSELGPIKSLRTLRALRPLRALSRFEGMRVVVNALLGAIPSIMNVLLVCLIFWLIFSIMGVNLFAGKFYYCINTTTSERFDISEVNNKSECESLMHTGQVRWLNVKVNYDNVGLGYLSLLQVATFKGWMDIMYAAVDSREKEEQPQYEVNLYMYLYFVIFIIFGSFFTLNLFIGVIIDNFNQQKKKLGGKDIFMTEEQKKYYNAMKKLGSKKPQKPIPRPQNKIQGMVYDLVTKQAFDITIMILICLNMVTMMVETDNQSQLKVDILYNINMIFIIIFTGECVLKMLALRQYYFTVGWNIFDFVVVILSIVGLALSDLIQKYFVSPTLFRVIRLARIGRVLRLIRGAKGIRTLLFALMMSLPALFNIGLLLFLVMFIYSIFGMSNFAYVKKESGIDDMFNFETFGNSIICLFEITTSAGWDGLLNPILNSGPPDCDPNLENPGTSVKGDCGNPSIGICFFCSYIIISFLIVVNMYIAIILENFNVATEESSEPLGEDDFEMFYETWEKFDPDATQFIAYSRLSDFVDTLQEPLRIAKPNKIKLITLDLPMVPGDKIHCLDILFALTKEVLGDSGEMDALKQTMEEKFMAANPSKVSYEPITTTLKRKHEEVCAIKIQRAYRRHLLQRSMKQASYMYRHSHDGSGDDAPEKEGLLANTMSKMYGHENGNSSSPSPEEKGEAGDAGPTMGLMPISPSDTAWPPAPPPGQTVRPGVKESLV

Row | SMILES | IC50 (hNav1.4) [µM] | IC50 (hNav1.5) [µM] | IC50 (hNav1.7) | IC50 (hNav1.3) [µM]
1 | CC[C@H](C)[C@H](NC(=O)[C@H](Cc1ccc(O)cc1)NC(=O)[C@H](CCCCN)NC(=O)[C@H](CCCNC(=N)N)NC(=O)[C@@H]1CSSC[C@@H]2NC(=O)[C@H](C)NC(=O)[C@H](CCCNC(=N)N)NC(=O)[C@H](CCCCN)NC(=O)[C@H](CO)NC(=O)[C@H](CC(=O)O)NC(=O)[C@@H]3CSSC[C@H](NC(=O)[C@H](CCC(=O)O)NC(=O)[C@H](CC(C)C)NC(=O)CNC(=O)[C@H](CCC(=O)O)NC(=O)[C@H](CSSC[C@H](NC(=O)[C@@H](N)Cc4ccc(O)cc4)C(=O)N[C@@H](CCC(N)=O)C(=O)N[C@@H](CCCCN)C(=O)N[C@@H](Cc4c[nH]c5ccccc45)C(=O)N[C@@H](CCSC)C(=O)N[C@@H](Cc4c[nH]c5ccccc45)C(=O)N[C@@H]([C@@H](C)O)C(=O)N3)NC2=O)C(=O)N[C@@H](CCCCN)C(=O)N[C@@H](CC(C)C)C(=O)N[C@@H](C(C)C)C(=O)N1)C(N)=O [compound 223] | > 5 | > 5 | > 5 µM | > 5
2 | CC[C@H](C)[C@H](NC(=O)[C@H](Cc1ccc(O)cc1)NC(=O)[C@H](CCCCN)NC(=O)[C@H](CCCNC(=N)N)NC(=O)[C@@H]1CSSC[C@@H]2NC(=O)[C@H](C)NC(=O)[C@H](CCCNC(=N)N)NC(=O)[C@H](CCCCN)NC(=O)[C@H](CO)NC(=O)[C@H](CC(=O)O)NC(=O)[C@@H]3CSSC[C@H](NC(=O)[C@H](CCC(=O)O)NC(=O)[C@H](CC(C)C)NC(=O)CNC(=O)[C@H](CCC(=O)O)NC(=O)[C@H](CSSC[C@H](NC(=O)[C@@H](N)Cc4ccc(O)cc4)C(=O)N[C@@H](CCC(N)=O)C(=O)N[C@@H](CCCCN)C(=O)N[C@@H](Cc4c[nH]c5ccccc45)C(=O)N[C@@H](CCSC)C(=O)N[C@@H](Cc4c[nH]c5ccccc45)C(=O)N[C@@H]([C@@H](C)O)C(=O)N3)NC2=O)C(=O)N[C@@H](CCCCN)C(=O)N[C@@H](CC(C)C)C(=O)N[C@@H](CC(C)C)C(=O)N1)C(N)=O [compound 224] | > 5 | > 5 | > 5 µM | > 5
3 | CCCC[C@@H]1NC(=O)[C@H](CC(C)C)NC(=O)[C@H](CCCCN)NC(=O)[C@@H]2CSSC[C@@H]3NC(=O)[C@H]([C@@H](C)O)NC(=O)[C@H](Cc4c[nH]c5ccccc45)NC(=O)[C@H](CCSC)NC(=O)[C@H](Cc4c[nH]c5ccccc45)NC(=O)[C@H](CCCCN)NC(=O)[C@H](CCC(N)=O)NC(=O)[C@@H](NC(=O)[C@@H](N)Cc4ccc(O)cc4)CSSC[C@H](NC(=O)[C@H](CSSC[C@@H](C(=O)N[C@@H](CCCNC(=N)N)C(=O)N[C@@H](CCCCN)C(=O)N[C@@H](Cc4ccc(O)cc4)C(=O)N[C@H](C(N)=O)[C@@H](C)CC)NC1=O)NC(=O)[C@H](C)NC(=O)[C@H](CCCNC(=N)N)NC(=O)[C@H](CCCCN)NC(=O)[C@H](CO)NC(=O)[C@H](CC(=O)O)NC3=O)C(=O)N[C@@H](CCC(=O)O)C(=O)NCC(=O)N[C@@H](CC(C)C)C(=O)N[C@@H](CCC(=O)O)C(=O)N2 [compound 225] | > 5 | > 5 | > 5 µM | > 5
4 | CCC[C@@H]1NC(=O)[C@H](CC(C)C)NC(=O)[C@H](CCCCN)NC(=O)[C@@H]2CSSC[C@@H]3NC(=O)[C@H]([C@@H](C)O)NC(=O)[C@H](Cc4c[nH]c5ccccc45)NC(=O)[C@H](CCSC)NC(=O)[C@H](Cc4c[nH]c5ccccc45)NC(=O)[C@H](CCCCN)NC(=O)[C@H](CCC(N)=O)NC(=O)[C@@H](NC(=O)[C@@H](N)Cc4ccc(O)cc4)CSSC[C@H](NC(=O)[C@H](CSSC[C@@H](C(=O)N[C@@H](CCCNC(=N)N)C(=O)N[C@@H](CCCCN)C(=O)N[C@@H](Cc4ccc(O)cc4)C(=O)N[C@H](C(N)=O)[C@@H](C)CC)NC1=O)NC(=O)[C@H](C)NC(=O)[C@H](CCCNC(=N)N)NC(=O)[C@H](CCCCN)NC(=O)[C@H](CO)NC(=O)[C@H](CC(=O)O)NC3=O)C(=O)N[C@@H](CCC(=O)O)C(=O)NCC(=O)N[C@@H](CC(C)C)C(=O)N[C@@H](CCC(=O)O)C(=O)N2 [compound 226] | > 5 | > 5 | > 5 µM | > 5
5 | CC[C@H](C)[C@H](NC(=O)[C@H](Cc1ccc(O)cc1)NC(=O)[C@H](CCCCN)NC(=O)[C@H](CCCNC(=N)N)NC(=O)[C@@H]1CSSC[C@@H]2NC(=O)[C@H](C)NC(=O)[C@H](CCCNC(=N)N)NC(=O)[C@H](CCCCN)NC(=O)[C@H](CO)NC(=O)[C@H](CC(=O)O)NC(=O)[C@@H]3CSSC[C@H](NC(=O)[C@H](CCC(=O)O)NC(=O)[C@H](CC(C)C)NC(=O)CNC(=O)[C@H](CCC(=O)O)NC(=O)[C@H](CSSC[C@H](NC(=O)[C@@H](N)Cc4ccc(O)cc4)C(=O)N[C@@H](CCC(N)=O)C(=O)N[C@@H](CCCCN)C(=O)N[C@@H](Cc4c[nH]c5ccccc45)C(=O)N[C@@H](CCSC)C(=O)N[C@@H](Cc4c[nH]c5ccccc45)C(=O)N[C@@H]([C@@H](C)O)C(=O)N3)NC2=O)C(=O)N[C@@H](CCCCN)C(=O)N[C@@H](CC(C)C)C(=O)N[C@@H](CCCCN)C(=O)N1)C(N)=O [compound 228] | > 5 | > 5 | 2.7 µM | > 5
6 | CC[C@H](C)[C@H](NC(=O)[C@H](Cc1ccc(O)cc1)NC(=O)[C@H](CCCCN)NC(=O)[C@H](CCCNC(=N)N)NC(=O)[C@@H]1CSSC[C@@H]2NC(=O)[C@H](C)NC(=O)[C@H](CCCNC(=N)N)NC(=O)[C@H](CCCCN)NC(=O)[C@H](CO)NC(=O)[C@H](CC(=O)O)NC(=O)[C@@H]3CSSC[C@H](NC(=O)[C@H](CCC(=O)O)NC(=O)[C@H](CC(C)C)NC(=O)CNC(=O)[C@H](CCC(=O)O)NC(=O)[C@H](CSSC[C@H](NC(=O)[C@@H](N)Cc4ccc(O)cc4)C(=O)N[C@@H](CCC(N)=O)C(=O)N[C@@H](CCCCN)C(=O)N[C@@H](Cc4c[nH]c5ccccc45)C(=O)N[C@@H](CCSC)C(=O)N[C@@H](Cc4c[nH]c5ccccc45)C(=O)N[C@@H]([C@@H](C)O)C(=O)N3)NC2=O)C(=O)N[C@@H](CCCCN)C(=O)N[C@@H](CC(C)C)C(=O)N[C@@H](CC(N)=O)C(=O)N1)C(N)=O [compound 229] | > 5 | > 5 | > 5 µM | > 5
7 | CSCC[C@@H]1NC(=O)[C@H](Cc2c[nH]c3ccccc23)NC(=O)[C@H](CCCCN)NC(=O)[C@H](CCC(N)=O)NC(=O)[C@@H](NC(=O)[C@@H](N)Cc2ccc(O)cc2)CSSC[C@@H]2NC(=O)[C@@H]3CSSC[C@@H](C(=O)N[C@@H](CCCNC(=N)N)C(=O)N[C@@H](CCCCN)C(=O)N[C@@H](Cc4ccc(O)cc4)C(=O)N[C@@H](CCCNC(N)=O)C(N)=O)NC(=O)[C@H](Cc4c[nH]c5ccccc45)NC(=O)[C@H](CC(C)C)NC(=O)[C@H](CCCCN)NC(=O)[C@H](CSSC[C@H](NC(=O)[C@H]([C@@H](C)O)NC(=O)[C@H](Cc4c[nH]c5ccccc45)NC1=O)C(=O)N[C@@H](CC(=O)O)C(=O)N[C@@H](CO)C(=O)N[C@@H](CCCCN)C(=O)N[C@@H](CCCNC(=N)N)C(=O)N[C@@H](C)C(=O)N3)NC(=O)[C@H](CCC(=O)O)NC(=O)[C@H](CC(C)C)NC(=O)CNC(=O)[C@H](CCC(=O)O)NC2=O [compound 241] | > 5 | > 5 | 1.2 µM | > 5
8 | CSCC[C@@H]1NC(=O)[C@H](Cc2c[nH]c3ccccc23)NC(=O)[C@H](CCCCN)NC(=O)[C@H](CCC(N)=O)NC(=O)[C@@H](NC(=O)[C@@H](N)Cc2ccc(O)cc2)CSSC[C@@H]2NC(=O)[C@@H]3CSSC[C@@H](C(=O)N[C@@H](CCCNC(=N)N)C(=O)N[C@@H](CCCCN)C(=O)N[C@@H](Cc4ccc(O)cc4)C(=O)N[C@@H](CCCCN)C(N)=O)NC(=O)[C@H](Cc4c[nH]c5ccccc45)NC(=O)[C@H](CC(C)C)NC(=O)[C@H](CCCCN)NC(=O)[C@H](CSSC[C@H](NC(=O)[C@H]([C@@H](C)O)NC(=O)[C@H](Cc4c[nH]c5ccccc45)NC1=O)C(=O)N[C@@H](CC(=O)O)C(=O)N[C@@H](CO)C(=O)N[C@@H](CCCCN)C(=O)N[C@@H](CCCNC(=N)N)C(=O)N[C@@H](C)C(=O)N3)NC(=O)[C@H](CCC(=O)O)NC(=O)[C@H](CC(C)C)NC(=O)CNC(=O)[C@H](CCC(=O)O)NC2=O [compound 242] | > 5 | > 5 | 0.45 µM and 0.63 µM | > 5
9 | CSCC[C@@H]1NC(=O)[C@H](Cc2c[nH]c3ccccc23)NC(=O)[C@H](CCCCN)NC(=O)[C@H](CCC(N)=O)NC(=O)[C@@H](NC(=O)[C@@H](N)Cc2ccc(O)cc2)CSSC[C@@H]2NC(=O)[C@@H]3CSSC[C@@H](C(=O)N[C@@H](CCCNC(=N)N)C(=O)N[C@@H](CCCCN)C(=O)N[C@@H](Cc4ccc(O)cc4)C(=O)N[C@@H](CC(N)=O)C(N)=O)NC(=O)[C@H](Cc4c[nH]c5ccccc45)NC(=O)[C@H](CC(C)C)NC(=O)[C@H](CCCCN)NC(=O)[C@H](CSSC[C@H](NC(=O)[C@H]([C@@H](C)O)NC(=O)[C@H](Cc4c[nH]c5ccccc45)NC1=O)C(=O)N[C@@H](CC(=O)O)C(=O)N[C@@H](CO)C(=O)N[C@@H](CCCCN)C(=O)N[C@@H](CCCNC(=N)N)C(=O)N[C@@H](C)C(=O)N3)NC(=O)[C@H](CCC(=O)O)NC(=O)[C@H](CC(C)C)NC(=O)CNC(=O)[C@H](CCC(=O)O)NC2=O [compound 243] | > 5 | > 5 | 0.52 µM | > 5
10 | CSCC[C@@H]1NC(=O)[C@H](Cc2c[nH]c3ccccc23)NC(=O)[C@H](CCCCN)NC(=O)[C@H](CCC(N)=O)NC(=O)[C@@H](NC(=O)[C@@H](N)Cc2ccc(O)cc2)CSSC[C@@H]2NC(=O)[C@@H]3CSSC[C@@H](C(=O)N[C@@H](CCCNC(=N)N)C(=O)N[C@@H](CCCCN)C(=O)N[C@@H](Cc4ccc(O)cc4)C(=O)N[C@@H](CO)C(N)=O)NC(=O)[C@H](Cc4c[nH]c5ccccc45)NC(=O)[C@H](CC(C)C)NC(=O)[C@H](CCCCN)NC(=O)[C@H](CSSC[C@H](NC(=O)[C@H]([C@@H](C)O)NC(=O)[C@H](Cc4c[nH]c5ccccc45)NC1=O)C(=O)N[C@@H](CC(=O)O)C(=O)N[C@@H](CO)C(=O)N[C@@H](CCCCN)C(=O)N[C@@H](CCCNC(=N)N)C(=O)N[C@@H](C)C(=O)N3)NC(=O)[C@H](CCC(=O)O)NC(=O)[C@H](CC(C)C)NC(=O)CNC(=O)[C@H](CCC(=O)O)NC2=O [compound 244] | > 5 | > 5 | 0.34 µM | > 5
